Assay results taken from PMC1521118 (Environmental Health Perspectives, 1993).
Read-outs that look alike come from different tables or passages of the source.

Legend:
[1] = test system: Salmonella typhimurium TA97
[2] = test system: Salmonella typhimurium TA98
[3] = rat, in vivo; cited from earlier work
sulfotransferase = settings: cited from earlier work
cytochrome P450 = settings: phenobarbital-inducible cytochrome P450, presumably CYP2B; cited from earlier work
[4] = test system: Bacillus subtilis-transforming DNA; settings: reactive species toward Bacillus subtilis-transforming DNA; cited from earlier work
[5] = test system: sarcoma 180 ascites cells; settings: mice bearing sarcoma 180 ascites cells; cited from earlier work
[6] = Sprague-Dawley rats; cited from earlier work
[7] = 10 female Wistar rats; at 15 months; cited from earlier work
mouse sarcoma 180 cells = mouse sarcoma 180 cells in vitro; cited from earlier work
[8] = test system: Salmonella typhimurium TA98; settings: ref 35 (McCartney et al.); cited from earlier work
[9] = with (+) Aroclor 1254 rat hepatic S9 10% v/v, 100 ng/plate
[10] = absence of S9, 100 ng/plate or less

Nc1ccc2cc3ccccc3cc2c1 [2-Aminoanthracene, reference compound]
histidine revertants/plate, TA97 ([1]; Salmonella typhimurium): 600 histidine revertants/plate | histidine revertants/plate, TA98 ([2]; Salmonella typhimurium): 865 histidine revertants/plate

Cn1cnc2c(N)[n+]([O-])cnc21 [9-Methyladenine-1-N-oxide]
histidine revertants/plate, TA98 ([2]; with (+) S9, 100 ng/plate): 118 + 9 histidine revertants/plate

Nc1c2[nH]cnc2nc[n+]1[O-] [Adenine-1-N-oxide]
histidine revertants/plate, TA98 ([2]; without (-) S9, 100 ng/plate): 19 + 6 histidine revertants/plate | tumor production [3]: failed to produce tumors | activity as a sulfate acceptor (sulfotransferase): inactive

Cn1cnc2c(N)ncnc21 [9-Methyladenine]
histidine revertants/plate, TA97 [1, 9]: 88 + 4 histidine revertants/plate | histidine revertants/plate, TA98 ([2]; without (-) S9, 100 ng/plate): 21 + 6 histidine revertants/plate

Nc1ncnc2nc[nH]c12 [Adenine]
histidine revertants/plate, TA97 [1, 9]: 104 + 12 histidine revertants/plate | histidine revertants/plate, TA98 ([2]; with (+) S9, 100 ng/plate): 76 + 11 histidine revertants/plate | oxidation to adenine-1-N-oxide (cytochrome P450): failed to oxidize

CC(=O)On1cnc2ncnc-2c1N [1-acetoxyadenine]
mutagenicity [4]: weak mutagen

Nc1ncnc2c1ncn2Cc1ccccc1 [9-Benzyladenine]
histidine revertants/plate, TA98 ([2]; with (+) S9, 100 ng/plate): 131 + 18 histidine revertants/plate

ONc1ncnc2c1ncn2Cc1ccccc1 [9-Benzyl-6-hydroxylaminopurine]
mutagenic activity toward TA97 (in words) [1, 10]: highly active | mutagenic activity toward TA98 (in words) [2, 10]: inactive

ONc1ncnc2nc[nH]c12 [6-Hydroxylaminopurine]
reversion rate relative to spontaneous reversion rate, TA97 ([1]; 1 ng/plate, without metabolic activation): twice the spontaneous reversion rate | toxicity toward TA97 ([1]; 100 ng/plate): toxic | histidine revertants/plate, TA97 ([1]; with (+) S9, 1 ng/plate): 113 + 4 histidine revertants/plate | survival time [5]: prolonged the survival time | toxicity toward TA98 ([2]; 1 ng/plate): still toxic | toxicity toward TA98 ([2]; 100 ng/plate): toxic | toxicity toward TA98 ([2]; concentration not given): extremely toxic | histidine revertants/plate, TA98 ([2]; with (+) S9, 1 ng/plate): toxic | histidine revertants/plate, TA98 ([2]; without (-) S9, 1 ng/plate): toxic | oncogenicity [6]: completely inactive | tumors produced [7]: only one tumor | effect on cells (mouse sarcoma 180 cells): induced mitotic inhibition and nuclear degeneration | mutagenicity toward TA98 [8]: inactive
